ChEMBL document CHEMBL3352132, “Synthesis, screening and docking of small heterocycles as glycogen phosphorylase inhibitors” (Eur J Med Chem, 2014)
Activity calls are given as the source filed them. The calls are words filed in the database; no cut-off is given here.

How the values were obtained:
[1] = biological target: T1, Glycogen phosphorylase, muscle form (Oryctolagus cuniculus) (UniProt P00489); experiment: Inhibition of rabbit muscle glycogen phosphorylase a assessed as inhibition of release of phosphate from glucose-1-phosphate at 222 mM after 30 mins by spectrophotometry
T1 sequence (whole entry): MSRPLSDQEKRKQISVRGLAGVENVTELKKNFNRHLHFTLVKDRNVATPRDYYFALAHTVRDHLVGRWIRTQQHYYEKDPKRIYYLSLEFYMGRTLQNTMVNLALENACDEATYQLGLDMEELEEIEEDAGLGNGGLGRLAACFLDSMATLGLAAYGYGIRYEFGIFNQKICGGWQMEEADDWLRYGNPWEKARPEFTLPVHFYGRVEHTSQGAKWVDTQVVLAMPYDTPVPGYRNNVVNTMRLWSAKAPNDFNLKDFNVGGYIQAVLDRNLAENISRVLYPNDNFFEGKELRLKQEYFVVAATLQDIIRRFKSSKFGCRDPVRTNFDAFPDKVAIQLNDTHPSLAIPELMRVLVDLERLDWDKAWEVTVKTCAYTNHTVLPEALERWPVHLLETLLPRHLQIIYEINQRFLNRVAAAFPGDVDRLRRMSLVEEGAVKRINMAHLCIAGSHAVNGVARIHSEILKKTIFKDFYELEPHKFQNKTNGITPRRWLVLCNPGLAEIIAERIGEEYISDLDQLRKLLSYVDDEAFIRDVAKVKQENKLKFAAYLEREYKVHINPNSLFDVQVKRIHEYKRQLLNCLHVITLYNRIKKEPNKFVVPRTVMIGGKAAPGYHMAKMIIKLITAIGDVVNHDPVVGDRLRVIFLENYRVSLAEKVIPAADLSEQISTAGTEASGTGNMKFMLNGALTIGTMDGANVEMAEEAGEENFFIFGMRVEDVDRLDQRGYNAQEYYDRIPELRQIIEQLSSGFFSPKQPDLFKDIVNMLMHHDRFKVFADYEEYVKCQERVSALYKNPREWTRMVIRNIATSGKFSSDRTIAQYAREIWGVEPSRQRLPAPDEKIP

[2] = biological target: T1, Glycogen phosphorylase, muscle form (Oryctolagus cuniculus); experiment: Inhibition of rabbit muscle glycogen phosphorylase a assessed as inhibition of release of phosphate from glucose-1-phosphate at 56 mM after 30 mins by spectrophotometry
[3] = biological target: T2, Glycogen phosphorylase, muscle form (Oryctolagus cuniculus, UniProt P00489); experiment: (§1) Inhibition of rabbit muscle glycogen phosphorylase a assessed as inhibition of release of phosphate from glucose-1-phosphate after 30 mins by spectrophotometry
T2 sequence (P00489 whole entry): T1 sequence (whole entry)

[4] = biological target: T1, Glycogen phosphorylase, muscle form (Oryctolagus cuniculus); experiment: as §1
[5] = biological target: T1, Glycogen phosphorylase, muscle form (Oryctolagus cuniculus); experiment: Inhibition of rabbit muscle glycogen phosphorylase a assessed as inhibition of release of phosphate from glucose-1-phosphate at 111 mM after 30 mins by spectrophotometry
[6] = biological target: T1, Glycogen phosphorylase, muscle form (Oryctolagus cuniculus); experiment: Inhibition of rabbit muscle glycogen phosphorylase a assessed as inhibition of release of phosphate from glucose-1-phosphate at 22 mM after 30 mins by spectrophotometry

In the case of `c1ccc(C2=NCCCN2)cc1`, the inhibition [1] is reported as 99%.

With `O=[N+]([O-])c1ccc(C2=NCCO2)cc1` the inhibition [2] was 94%.

For `CC1(C)CN=C(c2ccccc2)NC1`, the IC50 [3] was 1.2 mM.

`CC(C)(C)OC(=O)N1CCCN=C1c1ccccc1` was tested, and the IC50 [3] was 1.1 mM.

`c1ccc(C2=NC3CCCCC3N2)cc1` (stereo unspecified) was tested, and the IC50 [3] was 7.8 mM.

`CC(C)CC(NC(=O)OCc1ccccc1)C(=O)N1CCOCC1` (stereo unspecified) was tested, and the Activity [4] was “inactive”.

`NC(Cc1ccccc1)C(=O)N1CCOCC1` (stereo unspecified) gave an inhibition [1] of 20%.

`c1ccc(C2=NCCO2)cc1` showed an IC50 [3] of 23.9 mM.

Compound `CC(C)N1CCCN=C1c1ccccc1` has an IC50 [3] of 7.2 mM.

With `c1ccc(C2=NCCCCO2)cc1` the IC50 [3] was 1.4 mM.

With `COC(=O)[C@@H]1CSC(c2ccccc2)=N1` the IC50 [3] was 0.025 mM.

With `CC(C)(C)OC(=O)NC(CCC(=O)O)C(=O)N1CCOCC1` (stereo unspecified) the inhibition [5] was 12%.

With `CC(C)CC(N)C(=O)N1CCOCC1` (stereo unspecified) the IC50 [3] was 6.5 mM.

Work on `O=C(NCCCCC(NC(=O)OCc1ccccc1)C(=O)N1CCOCC1)OCc1ccccc1` (stereo unspecified) yielded an inhibition [1] of 5%.

For `NC(CCC(=O)O)C(=O)N1CCOCC1` (stereo unspecified), the inhibition [1] was 25%.

For `NCCCCC(N)C(=O)N1CCOCC1` (stereo unspecified), the Activity [4] was “inactive”.

`c1ccc(C2=NCCCO2)cc1` gave an inhibition [5] of 39%.

With `c1ccc(C2=NCCCCN2)cc1` the IC50 [3] was 3 mM.

Compound `CC1CN=C(c2ccccc2)O1` (stereo unspecified) has an inhibition [5] of 78%.

With `O=C(NC(Cc1ccccc1)C(=O)N1CCOCC1)OCc1ccccc1` (stereo unspecified) the Activity [4] was “inactive”.

`c1ccc(C2=NCCS2)cc1` showed an inhibition [6] of 39%.
